How the values were obtained:
KIVD = conditions: Yep et al., Bioorg. Chem. 34:325-336 (2006); cited from earlier work
IPDC = IPDC (Salmonella enterica, UniProt H9L492); conditions: ketoleucine vs ketovaline
Sequence of IPDC (H9L492 1-550): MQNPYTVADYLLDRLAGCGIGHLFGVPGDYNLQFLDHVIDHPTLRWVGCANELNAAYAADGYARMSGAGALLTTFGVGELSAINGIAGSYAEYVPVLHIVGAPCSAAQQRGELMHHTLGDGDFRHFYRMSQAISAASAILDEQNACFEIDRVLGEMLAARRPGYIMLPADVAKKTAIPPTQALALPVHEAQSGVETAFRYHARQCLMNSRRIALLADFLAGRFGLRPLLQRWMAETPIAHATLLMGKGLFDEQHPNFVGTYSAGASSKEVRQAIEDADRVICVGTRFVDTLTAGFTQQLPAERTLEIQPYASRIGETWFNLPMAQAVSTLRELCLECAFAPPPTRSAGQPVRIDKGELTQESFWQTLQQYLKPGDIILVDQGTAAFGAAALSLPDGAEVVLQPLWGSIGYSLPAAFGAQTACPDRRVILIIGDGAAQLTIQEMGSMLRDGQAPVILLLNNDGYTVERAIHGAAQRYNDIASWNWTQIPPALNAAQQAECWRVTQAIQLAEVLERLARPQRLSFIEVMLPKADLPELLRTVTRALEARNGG

Row | SMILES | Km (KIVD) | kcat of KIVD (KIVD) | specificity constant kcat/Km of IPDC, fold higher than towards ketovaline (IPDC)
1 | CC(C)CC(=O)C(=O)O [ketoleucine] | 37 mM | 49 s⁻¹ | 4 fold
2 | CC(C)C(=O)C(=O)O [ketovaline] | 2.8 mM | 48 s⁻¹ | 

Reference: patent US20140329275A1, “BIOCATALYSIS CELLS AND METHODS” (REGENTS OF THE UNIVERSITY OF MINNESOTA, priority 2011, published 2014)
